Data published in US20200000822A1, “METHODS OF TREATMENT FOR CANCER, STEROL HOMEOSTASIS, AND NEUROLOGICAL DISEASES” (BOARD OF REGENTS, THE UNIVERSITY OF TEXAS SYSTEM, priority 2017, published 2020).
“Also recorded” adds a separate entry of the source.

What was measured:
human TMEM97 = biological target: T1, human TMEM97 (Homo sapiens, UniProt Q5BJF2); assay: ^3H DTG competition binding in Sf9 insect membranes overexpressing TMEM97; settings: competition with 30 nM ^3H DTG
T1 construct: made in house; host or cells: Sf9 insect cells (baculovirus, pVL1392, BestBac)
Protocol: For insect cell expression, human TMEM97 was cloned into the vector pVL1392, and baculovirus was prepared using the BestBac system (Expression Systems) in accordance with manufacturer's instructions. For large scale production, Sf9 insect cells were infected at a density of 4×10^6 cells/mL and then shaken at 27° C. for 60 hours prior to harvest.
(§1) Membranes were prepared from PC-12, MCF-7, Sf9, or Expi293 cells. In brief, adherent cells were washed with ice cold PBS or HBS and harvested with a cell scraper, while suspension cells were simply pelleted. Cell pellets were suspended in 20 mM HEPES pH 7.5, 2 mM magnesium chloride, and 1:100,000 (v:v) benzonase nuclease (Sigma Aldrich) and supplemented with cOmplete Mini, EDTA-free Protease Inhibitor Cocktail Tablets (Roche). Following dounce homogenization, the cells were centrifuged at 50,000×g for 20 minutes. The supernatant was discarded and the membranes were washed one more time with cold 50 mM Tris pH 8.0 containing cOmplete Mini, EDTA-free Protease Inhibitor Cocktail Tablets (Roche, 1 tablet per 50 mL buffer). The membranes were centrifuged once more at 50,000× for 20 minutes, and then resuspended in a variable volume of cold 50 mM Tris pH 8.0 with the same protease inhibitor cocktail. Protein content was assessed by DC protein assay (Bio-Rad) according to manufacturer's instructions. Membranes were aliquoted, flash frozen, and stored at −80° C. until use in the radioligand binding experiments described below.
1.8 μM (+)SKF-10,047 was included to block 1l receptor sites in all MCF-7 membranes binding assays and in Sf9 membranes when testing TMEM97 ligands. Reactions were incubated for 90 minutes at 37° C., and were then terminated by filtration through a glass fiber filter using a Brandel cell harvester. Glass fiber filters were soaked in 0.3% polyethylenimine for at least 30 minutes at room temperature prior to harvesting. All reactions were performed in triplicate using a 96-well block. After the membranes were transferred to the filters and washed, the filters were soaked in 5 mL Cytoscint scintillation fluid overnight and radioactivity was measured using a Beckman Coulter LS 6500 scintillation counter. Data were analyzed using software from Graphpad Prism. Ki values were computed directly without the use of the Cheng-Prusoff correction using the Graphpad Prism software.

sigma-2 receptor [1] = biological target: sigma-2 receptor (Homo sapiens, UniProt Q5BJF2); assay: ^3H DTG competition binding in MCF-7 cell membranes; settings: competition with 30 nM ^3H DTG
Protocol: as §1, with “The membranes were centrifuged once more at 50,000× for 20 minutes, and then resuspended in a variable volume of cold 50 mM Tris pH 8.0 with the same protease inhibitor cocktail.” left out, “Membranes were aliquoted, flash frozen, and stored at −80° C. until use in the radioligand binding experiments described below.” left out
1.8 μM (+)SKF-10,047 was included to block 1l receptor sites in all MCF-7 membranes binding assays and in Sf9 membranes when testing TMEM97 ligands. […] After the membranes were transferred to the filters and washed, the filters were soaked in 5 mL Cytoscint scintillation fluid overnight and radioactivity was measured using a Beckman Coulter LS 6500 scintillation counter. Data were analyzed using software from Graphpad Prism. […]

sigma-2 receptor [2] = biological target: T2, sigma-2 receptor (Rattus norvegicus, UniProt Q5U3Y7); assay: siRNA knockdown of Tmem97 in PC-12 cells, sigma-2 expression by saturating ^3H DTG binding; type: cell-based; settings: compared with mRNA reduction
T2 construct: endogenous in cells; host or cells: PC-12 cells
T2 sequence (Q5U3Y7 1-176): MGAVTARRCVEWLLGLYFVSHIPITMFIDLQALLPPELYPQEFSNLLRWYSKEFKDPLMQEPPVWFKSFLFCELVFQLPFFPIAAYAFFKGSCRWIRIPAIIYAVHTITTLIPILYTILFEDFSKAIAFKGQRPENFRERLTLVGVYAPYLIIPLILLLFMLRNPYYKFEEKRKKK
Protocol: as §1, with “Cell pellets were suspended in 20 mM HEPES pH 7.5, 2 mM magnesium chloride, and 1:100,000 (v:v) benzonase nuclease (Sigma Aldrich) and supplemented with cOmplete Mini, EDTA-free Protease Inhibitor Cocktail Tablets (Roche).” left out, “-80°” for “−80°”, “below. Membrane radioligand binding assays were performed as described 41 with slight modifications. […] Samples were incubated at room temperature with shaking for 1.5 hours, at which time the reaction was terminated by the addition of ice-cold water. Samples were then applied to glass fiber filters (Merck Millipore) that had been pre-treated with 0.3% (v/v) polyethylenimine. […] Radioactivity was measured by liquid scintillation counting. […]” for “below.”

Tmem97 mRNA = assay: siRNA knockdown of Tmem97 in PC-12 cells, qPCR of mRNA; type: cell-based, Rattus norvegicus; settings: 10 nM siRNA
Protocol: A pair of siRNA oligos were designed against Rattus norvegicus Tmem97 mRNA using the Stealth RNAi™ tool available through ThermoFisher Scientific. The sense strand for the siRNA was 5′-[…]-3′ (SEQ ID NO: 4), and the antisense strand was 5′-[…]-3′ (SEQ ID NO: 5). As a control, we used the AllStars Negative Control siRNA™ from Qiagen. For the transfection, 2.2×10^6 PC-12 cells suspended in 8.0 mL of DMEM with 10% FBS and 10 μg/mL of gentamicin were placed in a 10 cm dish and immediately transfected with a 2.0 mL solution containing 20 μL of Lipofectamine® RNAimax from ThermoFisher Scientific and 10 nM of either the control or Tmem97 siRNA. After 24 hours, the media was changed for fresh media, and the cells were transfected again in the same way. 48 hours after the first transfection, the cells were trypsinized and split 1:2 into two new 10 cm plates. On the 5th day after the first transfection, cells were harvested by trypsinization and centrifugation, and 10% were set aside for RNA extraction while 90% were used for binding analysis. […]
After preparation of the cDNA was complete, real-time quantitative PCR (qPCR) was performed on a QuantStudio 6 qPCR instrument at the Harvard Medical School Center for Molecular Interactions using PowerUp™ SYBR® Green Master Mix from Applied Biosystems Life Technologies. […] Fold differences in Tmem97 expression levels were calculated using the ΔΔCT method 43. […]

PGRMC1 = biological target: T3, PGRMC1 (Homo sapiens, UniProt O00264); assay: single-point ^3H DTG binding, HEK293 cells overexpressing PGRMC1; settings: 10 nM ^3H DTG
T3 construct: mCardinal (behind the 2A skip peptide, reporter of transfection) (C, cleaved yes); expressed in transfected cells
Protocol: Eight selected hits from LC-MS/MS were cloned into a pTARGET vector (Promega), followed by a porcine teschovirus-1 2A skip peptide ([…] (SEQ ID NO: 3)) and by the fluorescent protein mCardinal40 to assess transfection efficiency. Plasmids were transfected into Expi293 cells (Thermo Fisher) according to manufacturer's instructions. After 36 hours, expression of each target protein was confirmed by flow cytometry analysis of mCardinal fluorescence levels. Receptor point mutants were generated by site-directed mutagenesis using KAPA polymerase (KAPA Biosystems), and resulting constructs were expressed in Expi293 cells as described above.
Membranes were prepared from PC-12, MCF-7, Sf9, or Expi293 cells. In brief, adherent cells were washed with ice cold PBS or HBS and harvested with a cell scraper, while suspension cells were simply pelleted. Cell pellets were suspended in 20 mM HEPES pH 7.5, 2 mM magnesium chloride, and 1:100,000 (v:v) benzonase nuclease (Sigma Aldrich) and supplemented with cOmplete Mini, EDTA-free Protease Inhibitor Cocktail Tablets (Roche). […] Protein content was assessed by DC protein assay (Bio-Rad) according to manufacturer's instructions. […]
Membrane radioligand binding assays were performed as described 41 with slight modifications. […] Radioactivity was measured by liquid scintillation counting.

T1 sequence (Q5BJF2 whole entry): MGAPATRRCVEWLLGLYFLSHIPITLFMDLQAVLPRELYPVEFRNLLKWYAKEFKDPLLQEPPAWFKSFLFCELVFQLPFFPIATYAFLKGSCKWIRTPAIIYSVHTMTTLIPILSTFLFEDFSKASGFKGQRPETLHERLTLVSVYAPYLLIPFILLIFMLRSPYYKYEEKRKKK
Sequence of sigma-2 receptor (Homo sapiens, UniProt Q5BJF2) (Q5BJF2 whole entry, species assumed): as the sequence (Q5BJF2 whole entry) above
T3 sequence (O00264 whole entry, species assumed): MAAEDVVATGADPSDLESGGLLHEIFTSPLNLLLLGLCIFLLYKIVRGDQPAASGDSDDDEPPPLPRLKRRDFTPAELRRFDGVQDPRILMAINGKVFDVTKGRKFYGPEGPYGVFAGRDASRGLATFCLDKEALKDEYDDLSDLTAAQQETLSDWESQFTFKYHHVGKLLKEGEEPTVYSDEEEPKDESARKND

Row | Compound | affinity of the ligand for TMEM97 compared with previously reported affinities (human TMEM97) | also measured
1 | (+)-SKF-10,047 | essentially identical to previously report sigma-2 receptor binding affinities; also recorded: essentially identical to previously reported affinities | 
2 | C=CCN(C)CCCCCCOc1ccc(C(=O)c2ccc(Br)cc2)c(F)c1 [Ro 48-8071, (4-Bromophenyl)-[2-fluoro-4-[6-[methyl(prop-2-enyl)amino]hexoxy]phenyl]methanone] | essentially identical to previously reported affinities | binding affinity in MCF-7 cell membranes compared with Sf9 membranes overexpressing TMEM97 (sigma-2 receptor [1]): identical in both
3 | siRNA: siRNA against Rattus norvegicus Tmem97 mRNA; sense strand 5′-CAACCUGUUGCGGUGGUACUCUAAG-3′ (SEQ ID NO: 4) (antisense CUUAGAGUACCACCGCAACAGGUUG; chemistry not given here) |  | reduction in sigma-2 expression levels by saturating ^3H DTG binding (sigma-2 receptor [2]): near identical reduction; reduction of Tmem97 mRNA expression (Tmem97 mRNA): ~60%
4 | COc1cccc2c1CCCC2CCCN1CCN(C2CCCCC2)CC1 (centres unmarked) [PB-28] | essentially identical to previously report sigma-2 receptor binding affinities; also recorded: essentially identical to previously reported affinities | 
5 | CC(C)=CCN1CCC2(C)c3cc(O)ccc3CC1C2C (single isomer, unassigned; (+)) [(+)-pentazocine] | essentially identical to previously report sigma-2 receptor binding affinities; also recorded: essentially identical to previously reported affinities | 
6 | O=C(CCCN1CCC(O)(c2ccc(Cl)cc2)CC1)c1ccc(F)cc1 [haloperidol] | essentially identical to previously report sigma-2 receptor binding affinities; also recorded: essentially identical to previously reported affinities | 
7 | COc1cc2c(cc1OC)CN(CCc1ccc(NC(=O)c3cccc4c(=O)c5cccc(OC)c5[nH]c34)cc1)CC2 [Elacridar] | essentially identical to previously reported affinities | binding affinity in MCF-7 cell membranes compared with Sf9 membranes overexpressing TMEM97 (sigma-2 receptor [1]): identical in both
8 | Cc1ccccc1NC(=N)Nc1ccccc1C [^3H DTG, ^3H 1,3-di-o-tolylguanidine] |  | ^3H DTG binding (PGRMC1): did not lead to increased
